In ChEMBL document CHEMBL5380853, “Lead Optimization of Androgen Receptor-HSP27 Disrupting Agents in Glioblastoma” (J Med Chem, 2023) one finds IC50 data, which are given here for 23 compounds.

For one assay, the system named is U-87 MG. Put plainly: Growth inhibition of AR-overexpressing human U87 cells measured after 48 hrs by MTT assay. The assay is classed as functional, cell-based, U-87MG ATCC. (Tetrazolium assays rely on reduction of a dye to a coloured formazan, in cell work by metabolically active cells.)
The test system of another assay is T98G. Put plainly: Growth inhibition of AR-overexpressing human T98G cells measured after 48 hrs by MTT assay. The format is functional, cell-based.

With `COc1ccc(OC)c(COc2cc(NC(=O)c3ccc(-c4ccccc4)cc3)ccc2NS(C)(=O)=O)c1`, the IC50 (usually the point on the concentration scale where inhibition reaches its midpoint) with U-87 MG worked out at 6910 nM; in the assay on T98G it was 455 nM.

For the compound `COc1ccc(OC)c(COc2cc(NC(=O)COCC(=O)Nc3ccc(NS(C)(=O)=O)c(OCc4cc(OC)ccc4OC)c3)ccc2NS(C)(=O)=O)c1`, the IC50 with U-87 MG and with T98G was above 10000 nM each time.

`COc1ccc(OC)c(COc2cc(NC(=O)c3ccc(C(F)(F)F)c(F)c3)ccc2NS(C)(=O)=O)c1`: the figures for the IC50 with U-87 MG and in the assay with T98G were 1500 nM and 4770 nM, respectively.

Turning to `CCc1ccc(C(=O)Nc2ccc(NS(C)(=O)=O)c(OCc3cc(OC)ccc3OC)c2)cc1`, the IC50 with U-87 MG worked out at 1870 nM; in the assay with T98G, 3850 nM.

For the compound `COc1ccc(OC)c(COc2cc(NC(=O)c3ccc(C(F)(F)F)cc3)ccc2NS(C)(=O)=O)c1`, the IC50 was 2080 nM in the assay on U-87 MG and above 10000 nM in the assay on T98G.

For `COc1ccc(OC)c(COc2cc(NC(=O)c3ccc(NC(=O)COCC(=O)Nc4ccc(C(=O)Nc5ccc(NS(C)(=O)=O)c(OCc6cc(OC)ccc6OC)c5)cc4)cc3)ccc2NS(C)(=O)=O)c1`, the IC50 in the assay with U-87 MG and in the assay on T98G was above 10000 nM in each case.

For the compound `COc1ccc(OC)c(COc2cc(NC(=O)c3ccc(OC)c(OC)c3)ccc2NS(C)(=O)=O)c1`, the IC50 stood at 220 nM in the assay on U-87 MG and 90 nM in the assay with T98G.

For `COc1ccc(OC)c(COc2cc(NC(=O)c3ccc(C)cc3)ccc2NS(C)(=O)=O)c1`, the values for the IC50 in the assay on U-87 MG and with T98G were 91 nM and 213 nM, respectively.

Take `COc1ccc(OC)c(COc2cc(NC(=O)c3ccc(N(C)C)cc3)ccc2NS(C)(=O)=O)c1`: the IC50 in the assay with U-87 MG was above 10000 nM; in the assay with T98G, 1910 nM.

For the compound `CCOc1cccc(C(=O)Nc2ccc(NS(C)(=O)=O)c(OCc3cc(OC)ccc3OC)c2)c1`, the IC50 in the assay on U-87 MG amounted to 3830 nM; with T98G, 38.4 nM.

As for `COc1ccc(OC)c(COc2cc(NC(=O)c3cccc(I)c3)ccc2NS(C)(=O)=O)c1`, the IC50 in the assay on U-87 MG was 210 nM; in the assay on T98G, 130 nM.

Regarding `COc1ccc(OC)c(COc2cc(NC(=O)c3cc(OC)c(OC)c(OC)c3)ccc2NS(C)(=O)=O)c1`, the IC50 in the assay with U-87 MG was determined as 3370 nM; in the assay with T98G, 218 nM.

On to `COc1ccc(OC)c(COc2cc(NC(=O)c3ccc(Cl)c([N+](=O)[O-])c3)ccc2NS(C)(=O)=O)c1`, for which the IC50 in the assay on U-87 MG was above 10000 nM; in the assay with T98G, 570 nM.

In the case of `COc1ccc(OC)c(COc2cc(NC(=O)c3ccc(C(F)(F)F)cc3C(F)(F)F)ccc2NS(C)(=O)=O)c1`, the IC50 in the assay on U-87 MG came to 1710 nM; with T98G, 2360 nM.

`COc1ccc(OC)c(COc2cc(NC(=O)c3ccc(Br)cc3)ccc2NS(C)(=O)=O)c1`: the IC50 was determined as 155 nM in the assay on U-87 MG and 148 nM in the assay with T98G.

As for `COc1ccc(OC)c(COc2cc(NC(=O)c3cccc(C)c3)ccc2NS(C)(=O)=O)c1`, the IC50 was above 10000 nM in the assay with U-87 MG and 422 nM in the assay with T98G.

On to `COc1ccc(OC)c(COc2cc(NC(=O)c3cccc(C#N)c3)ccc2NS(C)(=O)=O)c1`, for which the figures for the IC50 in the assay on U-87 MG and in the assay with T98G were 1890 nM and 5030 nM, respectively.

For the compound `COc1ccc(OC)c(COc2cc(NC(=O)c3ccc(Cl)cc3)ccc2NS(C)(=O)=O)c1`, the IC50 was 208 nM with U-87 MG and 77 nM in the assay with T98G.

Regarding `COc1ccc(OC)c(COc2cc(NC(=O)c3ccc(Cl)c(Cl)c3)ccc2NS(C)(=O)=O)c1`, the IC50 stood at 476 nM in the assay with U-87 MG and 2380 nM with T98G.

As for `COc1ccc(OC)c(COc2cc(NC(=O)c3cccc(C(F)(F)F)c3)ccc2NS(C)(=O)=O)c1`, the IC50 in the assay on U-87 MG worked out at 998 nM; in the assay with T98G, 423 nM.

Take `COc1ccc(OC)c(COc2cc(NC(=O)c3cccc([N+](=O)[O-])c3)ccc2NS(C)(=O)=O)c1`: the results for the IC50 in the assay on U-87 MG and with T98G were 2040 nM and 5070 nM, respectively.

Regarding `COc1ccc(OC)c(COc2cc(NC(=O)c3ccc(N)cc3)ccc2NS(C)(=O)=O)c1`, the IC50 in the assay on U-87 MG was determined as 2060 nM; in the assay with T98G, 3610 nM.

Take `COc1ccc(OC)c(COc2cc(NC(=O)c3cc(Cl)cc(Cl)c3)ccc2NS(C)(=O)=O)c1`: the IC50 in the assay on U-87 MG is 150 nM; with T98G, 97 nM.
